Where a name gives a salt, the structure may show the parent alone.
Assays:
[1] = biological target: T1, truncated human RET (Homo sapiens, UniProt P07949); assay: Inhibition of enzymatic kinase activity (LANCE Ulight); format: biochemical
T1 construct: truncated human FAK, RET, FLT3, JAK2, and LRRK2 (CARNA BIOSCIENCES™); purchased Carna Biosciences
T1 sequence (P07949 658-1114 limits assumed): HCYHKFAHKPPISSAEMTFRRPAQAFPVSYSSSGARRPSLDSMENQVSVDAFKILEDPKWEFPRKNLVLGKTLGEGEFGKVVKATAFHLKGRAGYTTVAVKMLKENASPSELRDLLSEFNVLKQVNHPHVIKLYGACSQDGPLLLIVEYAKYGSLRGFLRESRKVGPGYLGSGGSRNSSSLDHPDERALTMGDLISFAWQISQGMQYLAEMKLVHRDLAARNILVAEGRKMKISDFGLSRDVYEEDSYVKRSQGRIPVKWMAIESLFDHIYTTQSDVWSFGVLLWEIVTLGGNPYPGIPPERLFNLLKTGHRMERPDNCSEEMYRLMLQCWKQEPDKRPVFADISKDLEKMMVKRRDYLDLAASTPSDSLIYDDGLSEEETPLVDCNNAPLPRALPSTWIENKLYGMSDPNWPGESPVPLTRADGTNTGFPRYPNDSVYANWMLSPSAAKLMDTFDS
Description: (§1) Inhibition of Enzymatic SYK, ZAP70, PYK2, FAK, PIM1, RET, FLT3, JAK2 and LRRK2 Kinase Activity
(§2) Compounds of the invention were initially diluted to 10 mM in 100% DMSO (CALBIOCHEM™) for storage and made into kinase buffer solution to create a compound concentration ranging from 1 uM and 10 uM. Serial dilutions of compounds of the invention were dispensed into a 96-well plate (GREINER BIOSCIENCES™) at 6 μL each. Purified full-length human SYK, ZAP70, PIM1, PYK2 and truncated human FAK, RET, FLT3, JAK2, and LRRK2 (CARNA BIOSCIENCES™) were diluted in kinase buffer and added to the compound solutions and pre-incubated for 30 minutes at room temperature (1 hour for PYK2). […] The reaction mixture was incubated for 1 hour (2 hours for PYK2). Following the incubation, the stop solution made with EDTA, water, and Lance detection buffer ([…]™) was added (12 μL each) to stop phosphorylation.

[2] = biological target: T2, truncated human JAK2 (Homo sapiens, UniProt O60674); assay: as above; format: biochemical
T2 construct: truncated human FAK, RET, FLT3, JAK2, and LRRK2 (CARNA BIOSCIENCES™); purchased Carna Biosciences
T2 sequence (O60674 826-1132 limits assumed): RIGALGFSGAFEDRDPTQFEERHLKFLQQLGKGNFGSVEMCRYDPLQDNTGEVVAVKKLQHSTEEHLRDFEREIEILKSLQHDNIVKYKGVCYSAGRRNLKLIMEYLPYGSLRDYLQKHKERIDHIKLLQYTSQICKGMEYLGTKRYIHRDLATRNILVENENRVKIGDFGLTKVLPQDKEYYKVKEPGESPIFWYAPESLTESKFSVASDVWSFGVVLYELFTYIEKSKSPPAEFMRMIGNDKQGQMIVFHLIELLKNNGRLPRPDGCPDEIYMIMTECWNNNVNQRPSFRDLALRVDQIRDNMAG
Description: as §1, §2

[3] = biological target: T3, truncated human FLT3 (Homo sapiens, UniProt P36888); assay: as above; format: biochemical
T3 construct: truncated human FAK, RET, FLT3, JAK2, and LRRK2 (CARNA BIOSCIENCES™); purchased Carna Biosciences
T3 sequence (P36888 564-993 limits assumed): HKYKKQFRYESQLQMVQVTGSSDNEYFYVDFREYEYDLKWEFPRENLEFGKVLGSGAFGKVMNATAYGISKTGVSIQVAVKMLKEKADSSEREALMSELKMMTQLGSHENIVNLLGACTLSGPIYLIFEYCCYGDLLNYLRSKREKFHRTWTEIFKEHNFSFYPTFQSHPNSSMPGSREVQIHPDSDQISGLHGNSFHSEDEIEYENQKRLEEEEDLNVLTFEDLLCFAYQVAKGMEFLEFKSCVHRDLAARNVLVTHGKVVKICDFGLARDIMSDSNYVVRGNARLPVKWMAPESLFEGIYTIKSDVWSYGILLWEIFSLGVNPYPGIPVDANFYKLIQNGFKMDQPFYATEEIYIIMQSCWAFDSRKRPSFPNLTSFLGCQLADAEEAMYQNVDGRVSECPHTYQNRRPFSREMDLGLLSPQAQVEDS
Description: as §1, §2

[4] = biological target: T4, human PIM1 (Homo sapiens, UniProt P11309); assay: as above; format: biochemical; conditions: at 1 μM concentration; read-out: PIM1 percentage inhibition
T4 construct: Purified full-length human SYK, ZAP70, PIM1, PYK2; purchased Carna Biosciences
T4 sequence (P11309 whole entry): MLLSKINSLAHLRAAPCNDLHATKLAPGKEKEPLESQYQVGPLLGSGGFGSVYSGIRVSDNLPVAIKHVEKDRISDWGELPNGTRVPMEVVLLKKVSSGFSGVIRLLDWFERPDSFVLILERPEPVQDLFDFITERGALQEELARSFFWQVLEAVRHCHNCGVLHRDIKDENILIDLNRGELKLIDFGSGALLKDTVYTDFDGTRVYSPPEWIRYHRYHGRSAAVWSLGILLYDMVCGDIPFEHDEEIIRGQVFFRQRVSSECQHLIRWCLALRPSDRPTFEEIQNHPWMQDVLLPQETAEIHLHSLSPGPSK
Description: as §1
as §2, with “phosphorylation. […] Substrate phosphorylation was a function of the 665 nm emission measured following the addition of the detection solution and 50 minutes of incubation.” for “phosphorylation.”

[5] = biological target: PYK2 (Homo sapiens, UniProt Q14289); assay: as above; format: biochemical; set-up: Purified full-length human SYK, ZAP70, PIM1, PYK2; purchased Carna Biosciences; conditions: for inhibition at 1 µM: at 1 μM concentration, read-out: PYK2 percentage inhibition; for IC50: read-out: PYK2 molar inhibition (IC50)
PYK2, sequence (Q14289 whole entry): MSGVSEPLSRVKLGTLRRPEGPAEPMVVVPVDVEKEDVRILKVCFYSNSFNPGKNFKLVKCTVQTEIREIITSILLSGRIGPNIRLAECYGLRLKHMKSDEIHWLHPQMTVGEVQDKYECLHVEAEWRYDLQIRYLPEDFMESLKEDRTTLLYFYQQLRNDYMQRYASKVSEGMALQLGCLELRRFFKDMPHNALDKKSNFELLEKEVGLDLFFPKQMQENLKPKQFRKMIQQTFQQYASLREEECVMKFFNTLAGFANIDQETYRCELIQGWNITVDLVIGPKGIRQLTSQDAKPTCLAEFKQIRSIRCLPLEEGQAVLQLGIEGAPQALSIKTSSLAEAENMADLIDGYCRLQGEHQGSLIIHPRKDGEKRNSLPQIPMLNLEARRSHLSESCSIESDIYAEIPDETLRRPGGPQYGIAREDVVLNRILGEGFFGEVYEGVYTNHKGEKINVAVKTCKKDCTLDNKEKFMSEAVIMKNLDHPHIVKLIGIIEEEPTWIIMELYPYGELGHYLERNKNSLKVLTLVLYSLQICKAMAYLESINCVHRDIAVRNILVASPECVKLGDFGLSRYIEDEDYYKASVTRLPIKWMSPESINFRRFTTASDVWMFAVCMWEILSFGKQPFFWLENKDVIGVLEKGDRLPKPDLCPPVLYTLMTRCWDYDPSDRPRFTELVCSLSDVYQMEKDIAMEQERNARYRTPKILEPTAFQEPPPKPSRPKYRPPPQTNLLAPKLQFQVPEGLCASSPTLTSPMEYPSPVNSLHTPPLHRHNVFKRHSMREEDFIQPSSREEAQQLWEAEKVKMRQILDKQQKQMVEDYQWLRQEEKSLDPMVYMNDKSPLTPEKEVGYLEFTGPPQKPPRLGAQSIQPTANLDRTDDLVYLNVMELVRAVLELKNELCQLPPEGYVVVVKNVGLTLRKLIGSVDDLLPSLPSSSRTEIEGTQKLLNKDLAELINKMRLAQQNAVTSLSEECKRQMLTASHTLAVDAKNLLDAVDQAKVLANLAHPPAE
Description: as §1, §2

[6] = biological target: SYK (Homo sapiens, UniProt P43405); assay: as above; format: biochemical; set-up: Purified full-length human SYK, ZAP70, PIM1, PYK2; purchased Carna Biosciences; conditions: for inhibition at 1 µM: at 1 μM concentration, read-out: SYK percentage inhibition; for IC50: read-out: SYK molar inhibition (IC50)
Description: as §1, §2

[7] = biological target: T5, truncated human FAK (Homo sapiens, UniProt Q05397); assay: as above; format: biochemical; conditions: for inhibition at 1 µM: at 1 μM concentration, read-out: FAK percentage inhibition; for IC50: read-out: FAK molar inhibition (IC50)
T5 construct: truncated human FAK, RET, FLT3, JAK2, and LRRK2 (CARNA BIOSCIENCES™); purchased Carna Biosciences
T5 sequence (Q05397 376-1052 limits assumed): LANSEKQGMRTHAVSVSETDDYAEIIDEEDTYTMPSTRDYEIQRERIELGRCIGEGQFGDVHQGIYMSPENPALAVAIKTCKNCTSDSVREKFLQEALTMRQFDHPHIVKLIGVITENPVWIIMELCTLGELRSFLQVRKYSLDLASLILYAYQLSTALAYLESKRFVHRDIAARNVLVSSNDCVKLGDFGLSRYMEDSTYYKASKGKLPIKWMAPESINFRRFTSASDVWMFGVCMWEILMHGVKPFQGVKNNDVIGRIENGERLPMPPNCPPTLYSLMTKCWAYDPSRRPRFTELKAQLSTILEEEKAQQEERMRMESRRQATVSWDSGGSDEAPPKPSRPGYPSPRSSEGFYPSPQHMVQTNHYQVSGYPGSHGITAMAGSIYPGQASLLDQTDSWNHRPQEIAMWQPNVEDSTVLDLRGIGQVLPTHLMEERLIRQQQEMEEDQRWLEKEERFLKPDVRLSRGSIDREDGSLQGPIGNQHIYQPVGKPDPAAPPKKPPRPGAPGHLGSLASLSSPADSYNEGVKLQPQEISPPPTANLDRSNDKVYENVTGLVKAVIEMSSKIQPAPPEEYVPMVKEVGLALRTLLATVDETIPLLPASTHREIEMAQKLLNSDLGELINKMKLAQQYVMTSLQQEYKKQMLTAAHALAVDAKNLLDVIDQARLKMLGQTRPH
Description: as §1, §2

[8] = biological target: T6, human ZAP70 (Homo sapiens, UniProt P43403); assay: as above; format: biochemical; conditions: at 1 μM concentration; read-out: ZAP70 percentage inhibition
T6 construct: Purified full-length human SYK, ZAP70, PIM1, PYK2; purchased Carna Biosciences
T6 sequence (P43403 1-619): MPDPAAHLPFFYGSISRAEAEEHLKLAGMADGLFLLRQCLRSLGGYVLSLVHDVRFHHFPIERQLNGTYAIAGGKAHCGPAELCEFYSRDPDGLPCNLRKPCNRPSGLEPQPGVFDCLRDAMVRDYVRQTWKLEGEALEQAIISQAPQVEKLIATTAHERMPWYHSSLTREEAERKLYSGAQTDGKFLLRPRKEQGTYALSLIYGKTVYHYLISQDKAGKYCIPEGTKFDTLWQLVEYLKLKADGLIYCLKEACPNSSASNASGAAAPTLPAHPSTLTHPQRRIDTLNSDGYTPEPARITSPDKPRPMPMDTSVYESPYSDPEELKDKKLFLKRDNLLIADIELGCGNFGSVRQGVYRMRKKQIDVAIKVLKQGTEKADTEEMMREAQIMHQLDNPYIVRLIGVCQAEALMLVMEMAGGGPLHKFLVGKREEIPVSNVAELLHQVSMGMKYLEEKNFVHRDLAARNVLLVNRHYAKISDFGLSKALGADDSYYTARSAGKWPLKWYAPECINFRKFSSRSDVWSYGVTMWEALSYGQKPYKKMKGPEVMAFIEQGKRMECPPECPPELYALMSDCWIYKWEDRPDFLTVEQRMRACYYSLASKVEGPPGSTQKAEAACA
Description: as §1, §2

[9] = tested on: TNF-α release in THP-1 cells, IgG stimulation; assay: SYK dependent TNF-α release assay (IgG stimulation); format: cell-based, human; conditions: for percentage inhibition of TNF-α release compared with R406: IgG stimulated release, 0.3 μM
Description: Compounds of the invention were tested for their TNF-α release effect on THP-1 cells. For SYK dependent TNF-α release assay (i.e., via IgG stimulation), THP-1 cells derived from human monocytic cells were obtained from the American Type Culture Collection (ATCC, Manassas, Va.). This cell line was maintained with an Roswell Park Memorial Institute (RPMI) medium (GIBCO™) containing 10 fetal bovine serum (FBS; GIBCO™) and 0.05 mM 2-mercaptoethanol. The THP-1 cells were seeded at 1×10^5 cells/100 μL/well into human IgG ([…], INVITROGEN™)-coated 96 well culture plate, and serially diluted compound was then added. After an 18-hour incubation period at 37° C., supernatants were collected for the determination of the TNF-α level by enzyme-linked immunosorbent assay (ELISA), and the remaining cells were subjected to an MTT (yellow tetrazolium salt) assay to determine the cytotoxic effects of compound.

Compound `COc1cc(Nc2nc(N3CCC(O)CC3)nc3cc[nH]c(=O)c23)cc(OC)c1` [Compound 1, 4-(3,5-dimethoxyphenylamino)-2-(4-hydroxypiperidin-1-yl)pyrido[4,3,-d]pyrimidin-6(6H)-one] has an IC50 [1] of 200 nM, an IC50 [2] of 59.4 nM and an IC50 [3] of 242 nM.
In the case of `COc1cc(Nc2nc(N3CCC(O)(CO)CC3)nc3cc[nH]c(=O)c23)cc(OC)c1` [Compound 2, 4-(3,5-dimethoxyphenylamino)-2-(4-hydroxy-4-(hydroxymethyl)piperidin-1-yl)pyrido[4,3d]pyrimidin-5(6H)-one], the IC50 [1] is reported as 363 nM, the IC50 [2] is reported as 73.8 nM and the IC50 [3] is reported as 368 nM.
`N[C@@H]1CCN(c2nc(Nc3cccc(C(F)(F)F)c3)c3c(=O)[nH]ccc3n2)C1` [Compound 7, (R)-2-(3-aminopyrrolidin-1-yl)-4-(3-(trifluoromethyl)phenylamino)pyrido[4,3-d]pyrimidin-5(6H)-one hydrochloride] showed an inhibition at 1 µM [4] of 51.4%, an inhibition at 1 µM [5] of 84.9% and an inhibition at 1 µM [6] of 92.6%. It also gave an inhibition at 1 µM [7] of 83.5% and an inhibition at 1 µM [8] of 42%.
With `NC1CCC(Nc2nc(Nc3cccc(C(F)(F)F)c3)c3c(=O)[nH]ccc3n2)CC1` [Compound 9, 2-((1R,4R)-4-aminocyclohexylamino)-4-(3-(trifluoromethyl)phenylamino)pyrido[4,3-d]pyrimidin-5(6H)-one] the inhibition at 1 µM [4] was 64%, the inhibition at 1 µM [5] was 89% and the inhibition at 1 µM [6] was 84%. It also gave an inhibition at 1 µM [7] of 83% and an inhibition at 1 µM [8] of 32%.
`N[C@@H]1CCCC[C@H]1Nc1nc(Nc2cc(C(F)(F)F)cc(C(F)(F)F)c2)c2c(=O)[nH]ccc2n1` [Compound 100, 2-((1R,2R)-2-aminocyclohexylamino)-4-(3,5-bis(trifluoromethyl)phenylamino)pyrido[4,3-d]pyrimidin-5(6H)-one] was tested, and the inhibition at 1 µM [5] was 88.4%, the inhibition at 1 µM [6] was 37.7% and the inhibition at 1 µM [7] was 21.9%. The inhibition at 1 µM [8] was 9%.
Compound `O=c1[nH]ccc2nc(N[C@H]3CCNC3)nc(Nc3ccc(Oc4ccccc4)cc3)c12` [Compound 125, (S)-4-(phenoxyphenylamino)-2-(pyrrolidin-3-ylamino)pyrido[4,3-d]pyrimidin-5(6H)-one hydrochloride] has an IC50 [1] of 3.4 nM, an IC50 [2] of 24.9 nM and an IC50 [3] of 0.6 nM.
`O=c1[nH]ccc2nc(N3CCC(O)CC3)nc(Nc3ccc(N4CCOCC4)cc3)c12` [Compound 134, 2-(4-hydroxypiperidin-1-yl)-4-(4-morpholinophenylamino)pyrido[4,3-d]pyrimidin-5(6H)-one] was tested, and the IC50 [1] was 7.3 nM and the IC50 [2] was 3.7 nM.
`COc1cc(Nc2nc(N3CCC(O)CC3)nc3cc[nH]c(=O)c23)cc(OC)c1OC` [Compound 149, 2-(4-hydroxypiperidin-1-yl)-4-(3,4,5-triemethoxyphenylamino)pyrido[4,3d]pyrimidin-5(6H)-one] was tested, and the IC50 [1] was 32.7 nM, the IC50 [2] was 151 nM and the IC50 [3] was 151 nM.
Compound `COc1ccc(Nc2nc(N3CCC(O)CC3)nc3cc[nH]c(=O)c23)cc1C(F)(F)F` [Compound 150, 2-(4-hydroxypiperidin-1-yl)-4-(4-methoxy-3-(trifluoromethyl)phenylamino)pyrido[4,3d]pyrimidin-5(6H)-one] has an IC50 [1] of 115 nM, an IC50 [2] of 65.3 nM and an IC50 [3] of 106 nM.
With `COc1ccc(Nc2nc(N3CCC(CO)CC3)nc3cc[nH]c(=O)c23)cc1C(F)(F)F` [Compound 151, 2-(4-(hydroxymethyl)piperidin-1-yl)-4-(4-methoxy-3-(trifluoromethyl)phenylamino)pyrido[4,3d]pyrimidin-5(6H)-one] the IC50 [5] was 90.2 nM, the IC50 [6] was 8.2 nM and the IC50 [7] was 217 nM. For the same compound, the “percentage inhibition of TNF-α release compared with R406” value [9] was “greater than those exhibited by R406”.
With `COc1ccc(Nc2nc(N3CCC(O)(CO)CC3)nc3cc[nH]c(=O)c23)cc1C(F)(F)F` [Compound 152, 2-(4-hydroxy-4-(hydroxymethyl)piperidin-1-yl)-4-(4-methoxy-3-(trifluoromethyl)phenylamino)pyrido[4,3-d]pyrimidin-5(6H)-one] the IC50 [5] was 84.3 nM, the IC50 [6] was 2.7 nM and the IC50 [7] was 337 nM. For the same compound, the inhibition at 0.3 µM ([9]; Homo sapiens, IgG stimulation, At 0.3 μM, THP-1, read-out: Inhibition of TNF-α Release (percentage inhibition)) was 80.5%, the inhibition at 1 µM ([9]; Homo sapiens, IgG stimulation, At 1 μM, THP-1, read-out: Inhibition of TNF-α Release (percentage inhibition)) was 82.9% and the “percentage inhibition of TNF-α release compared with R406” value [9] was “higher percentage inhibition”.
`COc1cc(Nc2ncc(F)c(Nc3ccc4c(n3)NC(=O)C(C)(C)O4)n2)cc(OC)c1OC` [Compound R406, reference compound] was tested, and the “Inhibition of TNF-α Release (percentage inhibition)” value ([9]; IgG stimulation, At 0.3 μM, THP-1) was 49.9% and the “Inhibition of TNF-α Release (percentage inhibition)” value ([9]; IgG stimulation, At 1 μM, THP-1) was 87.4%.

From US8404677B2, “Kinase inhibitors” (Genosco, priority 2009, dated 2013)
